Measurements reported in publication PMC9863027, “Bioactive Alpha-Pyrone and Phenolic Glucosides from the Marine-Derived Metarhizium sp. P2100” (Journal of Fungi, 2022).
Where two headings read alike, the source gives them in different places.

Experiments:
α-amylase = target: T1, α-amylase (Sus scrofa, UniProt P00690); test: α-amylase inhibition activity (starch substrate, dinitrosalicylic acid reagent); type: biochemical; conditions: read-out: IC50 against α-amylase
T1 sequence (P00690 16-511): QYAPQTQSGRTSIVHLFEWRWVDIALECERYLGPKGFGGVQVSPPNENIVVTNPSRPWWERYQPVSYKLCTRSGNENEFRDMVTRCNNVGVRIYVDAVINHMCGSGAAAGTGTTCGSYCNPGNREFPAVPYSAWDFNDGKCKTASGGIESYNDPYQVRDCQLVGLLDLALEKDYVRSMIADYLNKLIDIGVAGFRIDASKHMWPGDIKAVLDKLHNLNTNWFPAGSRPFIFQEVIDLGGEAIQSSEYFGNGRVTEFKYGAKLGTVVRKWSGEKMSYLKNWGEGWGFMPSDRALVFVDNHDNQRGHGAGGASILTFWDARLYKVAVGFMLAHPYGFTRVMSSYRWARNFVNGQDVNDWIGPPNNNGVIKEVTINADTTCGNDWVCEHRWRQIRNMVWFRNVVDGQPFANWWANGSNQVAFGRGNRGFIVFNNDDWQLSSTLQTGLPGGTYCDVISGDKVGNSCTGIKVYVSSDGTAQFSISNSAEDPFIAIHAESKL
Protocol: The α-amylase inhibition activity was measured by Milella with minor modifications. Tested compounds and 1-Deoxynojirimycin (1-DNJ) were dissolved in methanol at different concentrations. A substrate solution was prepared with 0.25% starch dissolved in 20 mM phosphate buffer solution (PBS). The enzyme (10 units/mL of α-amylase in PBS, 25 µL) and sample solutions (25 µL) were mixed in Eppendorf vials, and the mixtures were incubated at 37 °C for 10 min. Then, 25 µL of substrate solution was added to each tube, and the reaction mixture was incubated at 37 °C for 10 min. The reaction was terminated by adding 150 µL of dinitrosalicylic acid color reagent. Subsequently, the test tubes were heated for 5 min at 100 °C. After cooling at room temperature, the absorbance was measured at 540 nm. The absorbance of the blank (enzyme solution was added during the boiling) and negative controls (methanol) were recorded. Analyses were performed in triplicate, and the final sample absorbance was obtained by subtracting its corresponding blank reading. The inhibitory activity (%) was calculated as follows: % inhibition=(1−A540 sample/A540 negative control) × 100%
The half-maximal inhibitory concentration (IC50) values were calculated according to the inhibition curve and the data were shown in the layout of mean ± SEM by GraphPad Prism 6.0 (GraphPad Software, Inc., La Jolla, CA, USA).

[1] = tested on: NO production in mouse macrophage; test: NO production inhibitory activity in LPS-stimulated mouse macrophage (Griess reaction); type: cell-based; conditions: concentration of 50 μM; LPS 1 μg/mL; mean ± SD
Protocol: The bioassay for NO production inhibitory activity was conducted as described by Xia. The mouse macrophage was seeded in 96-well plates. In each well, lipopolysaccharide (LPS) (1 μg/mL) was added after treating it with or without the tested compound for 24 h. The NO production in the supernatant was detected by the Griess reaction. The absorbance at 540 nm was measured with a microplate reader. The NO concentration and the inhibitory rate were calculated through a calibration curve. Dexamethasone was used as the positive control. Experiments were operated in triplicate, and the data were described as the mean ± SD of three independent experiments.

HEp-2 cells = tested on: HEp-2 cells; design: method as in earlier work; conditions: read-out: IC50 cytotoxicity against HEp-2; cited from earlier work
HepG2 cells = tested on: HepG2 cells; design: method as in earlier work; conditions: read-out: IC50 cytotoxicity against HepG2; cited from earlier work
[2] = target: protein tyrosine phosphatase 1B (PTP1B); conditions: read-out: IC50 against PTP1B, cited from earlier work

| Compound | NO production inhibition ratio (%) [1] [%] | further results |
| --- | --- | --- |
| 4-(4′-methoxy-β-D-glucosyl)-6-pentyl-2-pyrone [Compound 1] | 53.85 ± 2.32 | IC50 (α-amylase): 128 µM |
| COc1c(O[C@@H]2O[C@H](CO[C@@H]3OC[C@H](O)[C@H](O)[C@H]3O)[C@@H](O)[C@H](O)[C@H]2O)cc(OC)c2c(=O)c3ccccc3oc12 [3-O-(6-O-α-L-arabinopyranosyl)-β-D-gluco-pyranosyl-1,4-dimethoxyxanthone] | – | IC50 (HEp-2 cells): 9 µM; IC50 (HepG2 cells): 16 µM |
| CCCCCCCCCCCCCCCc1cc(O[C@@H]2O[C@H](CO)[C@@H](O)[C@H](O)[C@H]2O)cc(O)c1C(=O)Oc1cc(C)c(C(=O)O)c(O)c1 [Aquastatin A] | – | IC50 ([2]; competitive manner): 190 nM |
| CCCCC(OC1OC(CO)C(OC)C(O)C1O)c1cc(OC)cc(=O)o1 [Compound 2, 7(R)-(4′-methoxy-β-D-glucosyl)-4-methoxy-6-pentyl-2-pyrone] | 62.30 ± 1.46 | – |
| CCCCC(OC1OC(CO)C(OC)C(O)C1O)c1cc(OC)cc(=O)o1 [Compound 3, 7(S)-(4′-methoxy-β-D-glucosyl)-4-methoxy-6-pentyl-2-pyrone] | 68.44 ± 3.75 | – |
| COc1cc(C(C)=O)ccc1O[C@@H]1O[C@H](CO)[C@@H](OC)[C@H](O)[C@H]1O [Compound 4, Lecaniside D] | 68.10 ± 2.07 | – |
| C[C@@H]1C[C@H]2[C@@H]3CCC4=CC(=O)C=C[C@]4(C)[C@@]3(F)[C@@H](O)C[C@]2(C)[C@@]1(O)C(=O)CO [Dexamethasone, reference compound] | 63.88 ± 2.07 | – |
| Lecaniside C | – | IC50 [2]: > 50000 nM |
